# Reference: patent US20100047371A1, “COMPOSITIONS AND METHODS FOR ORAL CANCER CHEMOPREVENTION USING BERRY PREPARATIONS AND EXTRACTS” (priority 2006, published 2010)
# Columns and labels:
# [1] = Human pharmacokinetic study: anthocyanins in saliva and peripheral blood after topical gel application; format: in vivo; conditions: for Anthocyanin concentration in saliva / Anthocyanin concentration in peripheral blood: 1.0 g 5% FBR Gel, pH 6.5 topical to floor of mouth; for Anthocyanin concentration in saliva: saliva collected 2-5 min after application; for Anthocyanin concentration in peripheral blood: blood drawn five minutes after application
# Description: Anthocyanin content in sera, saliva, and tissue explants was evaluated by an HPLC-MS assay. The respective samples (sera, saliva or tissue homogenates) were dissolved in 90% solvent A (water plus 1% formic acid) and 10% solvent B (acetonitrile plus 1% formic acid) and then separated on a Symmetry C18 reversed-phase column and analyzed using a Waters 2695 gradient HPLC separation module equipped with a 996 photodiode-array (PDA) UV/visible absorbance detector (Milford, Mass.). The solvent system consisted of a step gradient from 90% A to 50% B over 15 minutes, and the absorption spectra were recorded from 200-800 nm with the inline PDA detector. Mass spectrometry was conducted on a quadrupole ion tunnel mass spectrometer equipped with a Z-spray ESI source. Explant protein levels were determined by the Lowry method, using bovine γ-globulin as the standard protein [Lippman et al., 1993].
# Next, evaluation of anthocyanin uptake into human oral mucosa from FBR gels prepared as described in Example 1 was undertaken. For in-vivo studies, participation of human subjects was conducted in accordance with an IRB approved protocol. […] For the phamacokinetic analyses, nine consenting adult volunteers dried the anterior floor of their mouth, placed 1.0 g of 5% berry gel (pH 6.5), and massaged the gel in place for 30 seconds to facilitate uptake. Two minutes after gel application saliva was collected for the next three minutes. Peripheral blood was drawn five minutes after gel application. Following clotting, sera samples were collected, and both the sera and saliva samples were stored at −80° C. until LC-MS analysis as described below.
# All nine participants had detectable anthocyanin levels of three anthocyanins (cyanidin 3-rutinoside, cyanidin 3-xylosylrutinoside, cyanidin 3-glucoside) in either their saliva or blood, and 4 donors had detectable levels of two anthocyanins (cyanidin 3-rutinoside and cyanidin 3-xylosylrutinoside) in their peripheral blood. Saliva from eight of the nine donors contained detectable levels of either two (cyanidin 3-rutinoside and cyanidin 3-xylosylrutinoside-4 donors) or three anthocyanins (4 donors).
# [2] = test system: Human Oral Mucosa Explant Tissues; test: Effect of final gel pH on anthocyanin uptake into human oral mucosa explant tissues; format: in vitro ADME; conditions: 10% w/w FBR gel
# Description: Anthocyanin content in sera, saliva, and tissue explants was evaluated by an HPLC-MS assay. The respective samples (sera, saliva or tissue homogenates) were dissolved in 90% solvent A (water plus 1% formic acid) and 10% solvent B (acetonitrile plus 1% formic acid) and then separated on a Symmetry C18 reversed-phase column and analyzed using a Waters 2695 gradient HPLC separation module equipped with a 996 photodiode-array (PDA) UV/visible absorbance detector (Milford, Mass.). The solvent system consisted of a step gradient from 90% A to 50% B over 15 minutes, and the absorption spectra were recorded from 200-800 nm with the inline PDA detector. Mass spectrometry was conducted on a quadrupole ion tunnel mass spectrometer equipped with a Z-spray ESI source. Explant protein levels were determined by the Lowry method, using bovine γ-globulin as the standard protein [Lippman et al., 1993]. Tissue explants, specifically human oral mucosal explants, were used to determine the in vitro effects of FBR content and pH on anthocyanin uptake. Human oral tissues for the tissue explant studies were obtained from consenting volunteers who were undergoing elective oral surgery procedures. To confirm “no pathologic diagnosis”, a portion of each of these tissues was submitted for light microscopic evaluation. […] Tissues for explant experiments were immediately placed in an artificial saliva transport medium, which also served as the incubation medium for the gel absorption studies. The composition of the artificial saliva used for tissue transport and incubation was (final concentrations): sodium carboxymethylcellulose (0.5%), sorbitol (165 mM), NaCl (14 mM), KCl (16 mM), calcium chloride dehydrate (1.0 mM), MgCl2 (0.63 mM), Trizma hydrochloride (2.0 mM). Tissues from eight donors were used for preliminary studies to compare the penetration of anthocyanins from the 5% berry gel and the 10% FBR gel, both at a final pH of 6.5. In order to account for heterogeneity among human donors, tissue samples were hemisected. One tissue portion treated with 5% and the other with 10% FBR gels. One gram of gel (containing either 5% or 10% w/w FBR) was placed on the epithelial surface of the explant, followed by gently rubbing of the site for 30 seconds to facilitate uptake. Explants were then placed into artificial saliva, incubated for 30 minutes (37° C., 5% CO2), and then frozen at −80° C. until HPLC-mass spectroscopy analyses as previously reported [Rodrigo et al., in press]. Tissue preparation for HPLC analyses consisted of homogenization of the entire oral mucosal specimen, removal of an aliquot for sample protein level determination, followed by the addition of collagenase type II (0.1 mg/mL, GIBCO, Grand Island, N.Y.) and 1% formic acid. Samples were then placed on a Sep Pack (Millipore, Billerica, Mass.), eluted with methanol, and dried under argon gas. Additional oral mucosal explant studies were conducted to compare the effect of FBR gel pH on absorption into oral mucosal explants. Tissues from eleven donors were used for these studies, and handling was as described above with the exception that all gels contained 10% w/w FBR and were formulated at a final pH of 3.5 or 6.5. […] Large differences (up to 15-fold) in detectable anthocyanin levels were found in the gel treated donor tissues; findings that likely reflect the extensive heterogeneity within human tissues that affects tissue penetrative abilities.
# [3] = average of eleven explant samples
structure (smiles),measurement,setting,value
CC1OC(OCC2OC(Oc3cc4c(O)cc(O)cc4[o+]c3-c3ccc(O)c(O)c3)C(OC3OCC(O)C(O)C3O)C(O)C2O)C(O)C(O)C1O (stereo not drawn) [cyanidin 3-xylosylrutinoside],number of donors with detectable levels in peripheral blood,"[1]; of nine participants, 5% berry gel (pH 6.5), five minutes after application",4 donors
same,Anthocyanin concentration in saliva,[1]; patient 101,2.0 pmol/mL
same,Anthocyanin concentration in saliva,[1]; patient 102,0.5 pmol/mL
same,Anthocyanin concentration in peripheral blood,[1]; patient 103,0.6 pmol/mL
same,Anthocyanin concentration in saliva,[1]; patient 104,1.5 pmol/mL
same,Anthocyanin concentration in peripheral blood,[1]; patient 105,1.1 pmol/mL
same,Anthocyanin concentration in saliva,[1]; patient 105,2.3 pmol/mL
same,Anthocyanin concentration in peripheral blood,[1]; patient 106,0.8 pmol/mL
same,Anthocyanin concentration in saliva,[1]; patient 106,1.9 pmol/mL
same,Anthocyanin concentration in peripheral blood,[1]; patient 107,1.3 pmol/mL
same,Anthocyanin concentration in saliva,[1]; patient 107,1.7 pmol/mL
same,Anthocyanin concentration in saliva,[1]; patient 108,1.0 pmol/mL
same,Anthocyanin concentration in saliva,[1]; patient 109,1.2 pmol/mL
same,"Anthocyanin uptake, Gel pH 3.5, Avg. ± SEM",[2]; [3],5.4 pmol per mg tissue
same,"Anthocyanin uptake, Gel pH 6.5, Avg. ± SEM",[2]; [3],17.4 pmol per mg tissue
same,"% change 3.5 to 6.5, Avg. ± SEM",[2]; average of explant samples,140.6%
same,% change 3.5 to 6.5,[2]; explant sample 001,522.5%
same,"Anthocyanin uptake, Gel pH 3.5",[2]; explant sample 001,14.2 pmol per mg tissue
same,"Anthocyanin uptake, Gel pH 6.5",[2]; explant sample 001,88.1 pmol per mg tissue
same,% change 3.5 to 6.5,[2]; explant sample 002,747.1%
same,"Anthocyanin uptake, Gel pH 3.5",[2]; explant sample 002,1.2 pmol per mg tissue
same,"Anthocyanin uptake, Gel pH 6.5",[2]; explant sample 002,10.3 pmol per mg tissue
same,% change 3.5 to 6.5,[2]; explant sample 003,12.1%
same,"Anthocyanin uptake, Gel pH 3.5",[2]; explant sample 003,5.7 pmol per mg tissue
same,"Anthocyanin uptake, Gel pH 6.5",[2]; explant sample 003,6.4 pmol per mg tissue
same,% change 3.5 to 6.5,[2]; explant sample 004,−65.1%
same,"Anthocyanin uptake, Gel pH 3.5",[2]; explant sample 004,3.6 pmol per mg tissue
same,"Anthocyanin uptake, Gel pH 6.5",[2]; explant sample 004,1.3 pmol per mg tissue
same,% change 3.5 to 6.5,[2]; explant sample 005,−45.9%
same,"Anthocyanin uptake, Gel pH 3.5",[2]; explant sample 005,0.9 pmol per mg tissue
same,"Anthocyanin uptake, Gel pH 6.5",[2]; explant sample 005,0.5 pmol per mg tissue
same,% change 3.5 to 6.5,[2]; explant sample 006,258.5%
same,"Anthocyanin uptake, Gel pH 3.5",[2]; explant sample 006,9.9 pmol per mg tissue
same,"Anthocyanin uptake, Gel pH 6.5",[2]; explant sample 006,35.5 pmol per mg tissue
same,% change 3.5 to 6.5,[2]; explant sample 007,−9.4%
same,"Anthocyanin uptake, Gel pH 3.5",[2]; explant sample 007,1.1 pmol per mg tissue
same,"Anthocyanin uptake, Gel pH 6.5",[2]; explant sample 007,1.0 pmol per mg tissue
same,"Anthocyanin uptake, Gel pH 3.5",[2]; explant sample 008,0.0 pmol per mg tissue
same,"Anthocyanin uptake, Gel pH 6.5",[2]; explant sample 008,6.3 pmol per mg tissue
same,% change 3.5 to 6.5,[2]; explant sample 009,318.4%
same,"Anthocyanin uptake, Gel pH 3.5",[2]; explant sample 009,9.9 pmol per mg tissue
same,"Anthocyanin uptake, Gel pH 6.5",[2]; explant sample 009,41.3 pmol per mg tissue
same,% change 3.5 to 6.5,[2]; explant sample 010,−91.9%
same,"Anthocyanin uptake, Gel pH 3.5",[2]; explant sample 010,6.7 pmol per mg tissue
same,"Anthocyanin uptake, Gel pH 6.5",[2]; explant sample 010,0.5 pmol per mg tissue
same,% change 3.5 to 6.5,[2]; explant sample 011,−100%
same,"Anthocyanin uptake, Gel pH 3.5",[2]; explant sample 011,6.0 pmol per mg tissue
same,"Anthocyanin uptake, Gel pH 6.5",[2]; explant sample 011,0.00 pmol per mg tissue
